This is an account of results in BindingDB's records for doi:10.1016/s0960-894x(00)00138-4 (Berlex Biosciences, 2000).

SMILES strings stand for the structures.

For this assay, the target named is Cationic trypsin (Bos taurus). Kind of assay: In vitro inhibition of bovine trypsin.
What is called Ki is the dissociation constant of the complex between target and ligand, obtained from inhibition or displacement. With `CN(C)C(=O)COc1ccc2c3ccccc3n(Cc3ccc4ccc(C(=N)N)cc4c3)c2c1` [2-[9-(7-Carbamimidoyl-naphthalen-2-ylmethyl)-9H-carbazol-2-yloxy]-N,N-dimethyl-acetamide], the Ki amounted to 90 nM. This lies in the double-digit nanomolar range.
`N=C(N)c1ccc(-n2c3ccccc3c3ccc(OCc4ccc5ccc(C(=N)N)cc5c4)cc32)cc1` [7-[9-(4-Carbamimidoyl-phenyl)-9H-carbazol-2-yloxymethyl]-naphthalene-2-carboxamidine]: the Ki was 510 nM.
As for `N=C(N)c1ccc(-n2ccc3ccc(NCc4cccc(C(=N)N)c4)cc32)cc1` [3-{1-[4-amino(imino)methylphenyl]-1H-6-indolylaminomethyl}phenyl-iminomethanamine], the Ki was 1620 nM.
Take `N=C(N)c1ccc(-n2ccc3ccc(NC(=O)c4cccc(C(=N)N)c4)cc32)cc1` [3-Carbamimidoyl-N-[1-(4-carbamimidoyl-phenyl)-1H-indol-6-yl]-benzamide]: the Ki was 410 nM.
As for `N=C(N)c1ccc(-n2ccc3ccc(NCc4ccc5ccc(C(=N)N)cc5c4)cc32)cc1` [7-{[1-(4-Carbamimidoyl-phenyl)-1H-indol-6-ylamino]-methyl}-naphthalene-2-carboxamidine], the affinity, expressed as Ki, was 300 nM.
`CCOC(=O)c1cc2ccc(OC3CCN(C(C)=N)CC3)cc2n1Cc1ccc2ccc(C(=N)N)cc2c1` [1-(7-Carbamimidoyl-naphthalen-2-ylmethyl)-6-[1-(1-imino-ethyl)-piperidin-4-yloxy]-1H-indole-2-carboxylic acid ethyl ester] gave a Ki of 20 nM.
